In general, Emax refers to the greatest response seen or fitted, relative to the assay's reference. The EC50 is the concentration that produces a half-maximal response. Lower therefore signals higher potency in that assay.

*1 amine or outer side, *2 acyl side, *3 side chain or, on linkers, in order; H or OH if unused. Where a SMILES comes first, the peptide text is derived from it. Side-chain parts run from the residue outwards. [ ]: non-standard residue; d: D form. The star is where a group is joined. Decanoyl(10-(4-HOOC-PhO)) = O=C(O)c1ccc(OCCCCCCCCCC(=O)*)cc1; αMePhe(2-F) = C[C@](N)(Cc1ccccc1F)C(=O)O; γGlu = O=C(O)[C@H](CCC(=O)[*:2])N[*:1]; αMeY = C[C@](N)(Cc1ccc(O)cc1)C(=O)O; αMeL = CC(C)C[C@](C)(N)C(=O)O; Orn = NCCC[C@H](N)C(=O)O; AEEA = NCCOCCOCC(=O)O; Aib = CC(C)(N)C(=O)O

From US20230265151A1, “GIP/GLP1 CO-AGONIST COMPOUNDS” (priority 2020, published 2023) come the findings set out here.

Holding throughout (type): cell-based
One assay has as its target T1, hGIPR (Homo sapiens, UniProt P48546).
T1 construct: expressed in transfected cells
T1 sequence (P48546 22-466): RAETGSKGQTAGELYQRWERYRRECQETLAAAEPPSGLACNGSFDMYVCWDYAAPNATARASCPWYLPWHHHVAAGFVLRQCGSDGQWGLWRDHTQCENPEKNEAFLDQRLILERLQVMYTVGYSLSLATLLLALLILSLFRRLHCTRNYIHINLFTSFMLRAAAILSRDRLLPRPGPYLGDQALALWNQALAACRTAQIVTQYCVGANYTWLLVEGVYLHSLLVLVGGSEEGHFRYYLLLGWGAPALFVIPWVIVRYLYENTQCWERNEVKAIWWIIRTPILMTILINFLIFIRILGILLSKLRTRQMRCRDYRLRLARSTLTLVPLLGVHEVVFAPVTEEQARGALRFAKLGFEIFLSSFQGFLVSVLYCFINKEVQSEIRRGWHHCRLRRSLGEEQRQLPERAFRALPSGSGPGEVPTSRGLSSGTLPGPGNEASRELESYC
In words: Functional cAMP formation (HTRF) in HEK-293 clonal cells expressing hGIPR, 0.1% bovine casein, without or with 1.0% human serum albumin. The method in brief: (§1)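 Readings of the HTRF 665/620 nm ratio, which falls as cAMP rises, were converted to nM cAMP using a standard curve after 30 min peptide exposure at 37° C.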

The next assay deals with T2, hGCGR (Homo sapiens, UniProt P47871).
T2 construct: expressed in transfected cells
In words: Functional cAMP formation (HTRF) in HEK-293 clonal cells expressing hGCGR, 0.1% bovine casein, without or with 1.0% human serum albumin. Conditions: hGCGR EC50, nM (SEM, n), geometric mean. Put shortly:
as §1

For the next assay, the target named is hGLP-1R (Homo sapiens, UniProt P43220). In words: Functional cAMP formation (HTRF) in HEK-293 clonal cells expressing hGLP-1R, 0.1% bovine casein, without or with 1.0% human serum albumin. Conditions: for EC50: hGLP-1R EC50, nM (SEM, n), geometric mean. The arrangement: expressed in transfected cells. The method in brief:
as §1
In general terms: cAMP levels reflect the balance of adenylyl cyclase and phosphodiesterase activity.

Where [1] appears, read: 0.1% bovine casein and 1.0% human serum albumin, 37° C.
The mark [2] stands for this setting: cAMP, incubated at 37° C., 0.1% bovine casein (no human serum albumin).

hGLP-1R, sequence (P43220 24-463): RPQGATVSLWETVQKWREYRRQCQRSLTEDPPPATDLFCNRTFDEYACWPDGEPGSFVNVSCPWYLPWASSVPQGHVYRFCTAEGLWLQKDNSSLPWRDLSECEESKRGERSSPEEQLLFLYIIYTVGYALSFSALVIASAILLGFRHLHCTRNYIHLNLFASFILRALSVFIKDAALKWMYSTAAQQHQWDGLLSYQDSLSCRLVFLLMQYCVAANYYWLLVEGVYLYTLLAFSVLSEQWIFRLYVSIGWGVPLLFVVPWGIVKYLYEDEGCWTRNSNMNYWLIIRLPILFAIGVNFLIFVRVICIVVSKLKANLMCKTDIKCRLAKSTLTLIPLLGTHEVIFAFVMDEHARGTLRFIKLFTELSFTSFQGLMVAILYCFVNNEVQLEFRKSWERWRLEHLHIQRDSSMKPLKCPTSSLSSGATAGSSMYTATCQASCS
T2 sequence (P47871 26-477): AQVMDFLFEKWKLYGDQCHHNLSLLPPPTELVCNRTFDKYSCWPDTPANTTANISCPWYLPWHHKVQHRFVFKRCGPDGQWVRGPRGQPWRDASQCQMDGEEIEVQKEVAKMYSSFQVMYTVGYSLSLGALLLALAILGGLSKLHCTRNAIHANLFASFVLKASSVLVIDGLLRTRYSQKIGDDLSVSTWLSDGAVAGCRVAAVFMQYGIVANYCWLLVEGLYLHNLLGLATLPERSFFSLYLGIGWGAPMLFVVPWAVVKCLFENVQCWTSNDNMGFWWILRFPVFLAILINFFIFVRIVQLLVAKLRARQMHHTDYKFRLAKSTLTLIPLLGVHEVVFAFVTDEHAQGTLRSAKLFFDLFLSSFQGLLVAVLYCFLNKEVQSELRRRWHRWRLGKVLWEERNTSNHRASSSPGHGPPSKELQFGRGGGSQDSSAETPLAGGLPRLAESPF

With `CC[C@H](C)[C@H](NC(=O)[C@H](CCCN)NC(=O)[C@H](CC(=O)O)NC(=O)[C@H](CC(C)C)NC(=O)[C@](C)(CC(C)C)NC(=O)[C@@H](NC(=O)C(C)(C)NC(=O)[C@H](Cc1ccc(O)cc1)NC(=O)[C@H](CC(=O)O)NC(=O)[C@H](CO)NC(=O)[C@@H](NC(=O)[C@](C)(Cc1ccccc1F)NC(=O)[C@@H](NC(=O)CNC(=O)[C@H](CCC(=O)O)NC(=O)C(C)(C)NC(=O)[C@@H](N)Cc1ccc(O)cc1)[C@@H](C)O)[C@@H](C)O)[C@@H](C)CC)C(=O)N[C@@H](C)C(=O)N[C@@H](CCC(N)=O)C(=O)NC(C)(C)C(=O)N[C@@H](CCCCNC(=O)COCCOCCNC(=O)COCCOCCNC(=O)CC[C@H](NC(=O)CCCCCCCCCOc1ccc(C(=O)O)cc1)C(=O)O)C(=O)N[C@@H](Cc1ccccc1)C(=O)N[C@H](C(=O)N[C@H](CCC(=O)O)C(=O)N[C@@](C)(Cc1ccc(O)cc1)C(=O)N[C@@H](CC(C)C)C(=O)N[C@H](C(=O)N[C@@H](CCCCNC(=O)COCCOCCNC(=O)COCCOCCNC(=O)CC[C@H](NC(=O)CCCCCCCCCOc1ccc(C(=O)O)cc1)C(=O)O)C(=O)NCC(=O)NCC(=O)N1CCC[C@H]1C(=O)N[C@@H](CO)C(=O)N[C@@H](CO)C(=O)NCC(=O)N[C@@H](C)C(=O)N1CCC[C@H]1C(=O)N1CCC[C@H]1C(=O)N1CCC[C@H]1C(=O)N[C@@H](CO)C(N)=O)[C@@H](C)CC)[C@@H](C)CC` [Example 240] (H-Y[Aib]EGT[αMePhe(2-F)]TSDY[Aib]I[αMeL]LD[Orn]IAQ[Aib]K([AEEA-AEEA-γGlu-Decanoyl(10-(4-HOOC-PhO))])FI[dE][αMeY]LIK([AEEA-AEEA-γGlu-Decanoyl(10-(4-HOOC-PhO))])GGPSSGAPPPS-NH2), the Emax on hGIPR (HEK293, read-out: hGIPR Emax, % ± SEM, 0.1% bovine casein and 1.0% human serum albumin, 37° C., percent of maximal response to GIP(1-42)NH2) is 87.2%; at hGLP-1R (HEK293, read-out: hGLP-1R Emax, % ± SEM, percent of maximal response to GLP-1(7-36)NH2, 37° C., 0.1% bovine casein, arithmetic mean), 98.5%. Further, the EC50 is 0.0237 nM at hGIPR (hGIPR EC50, nM (SEM, n), cAMP, incubated at 37° C., 0.1% bovine casein (no human serum albumin), geometric mean); above 9950 nM at hGCGR (setting [1]); above 9950 nM at hGCGR (setting [2]); 150 nM at hGLP-1R (setting [1]); 0.508 nM on hGLP-1R (setting [2]).
